Experimental data as given in ChEMBL document CHEMBL1201862, “PubChem BioAssay data set” (2004).
Active and inactive are the calls of the source.

Legend:
Genome polyprotein = Genome polyprotein (dengue virus type 2, UniProt P29990); assay: flavivirus cap methylation enzyme inhibition – biochemical, confirmation dose response, primary screen (AID 588689); assay type: functional
[1] = biological target: T1, Carboxy-terminal domain RNA polymerase II polypeptide A small phosphatase 1 (Homo sapiens, UniProt Q9GZU7); assay: CTDSP1 inhibitors, concentration-response, biochemical, absorbance readout, ultra-high-throughput screen actives (AID 540297); assay type: functional
T1 sequence (Q9GZU7 whole entry): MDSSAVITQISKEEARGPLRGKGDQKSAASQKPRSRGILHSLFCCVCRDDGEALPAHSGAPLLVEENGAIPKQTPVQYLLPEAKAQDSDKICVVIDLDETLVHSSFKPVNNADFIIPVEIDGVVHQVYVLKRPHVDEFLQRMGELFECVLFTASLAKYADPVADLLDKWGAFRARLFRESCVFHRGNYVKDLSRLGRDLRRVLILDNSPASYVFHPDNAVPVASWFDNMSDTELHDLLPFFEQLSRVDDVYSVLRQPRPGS

[2] = biological target: Voltage-dependent T-type calcium channel subunit alpha-1H (Homo sapiens, UniProt O95180); assay type: functional;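 further: channel activity triggered by adding a high calcium stimulation buffer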
[3] = A Cell Based Secondary Assay To Explore Cytotoxicity of Compounds that Sensitize Mycobacterium Tuberculosis to Beta-Lactam Antibiotics.; assay type: functional
[4] = NIH-3T3 fibroblast cytotoxicity, dose response, cytotoxicity control, cell-based, fluorescence, Alamar Blue, secondary assay (AID 2327); assay type: functional;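 further: NIH-3T3 mouse fibroblasts cultured with fluconazole at 8 µg/mL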
[5] = biological target: T2, Short transient receptor potential channel 4 (Mus musculus, UniProt Q9QUQ5); assay: calcium entry via TRPC4 opening agents – cell-based, HEK293 TRPC4/mu-opioid, Fluo-4 calcium, dose response (AID 434937); assay type: functional
T2 sequence (Q9QUQ5 whole entry): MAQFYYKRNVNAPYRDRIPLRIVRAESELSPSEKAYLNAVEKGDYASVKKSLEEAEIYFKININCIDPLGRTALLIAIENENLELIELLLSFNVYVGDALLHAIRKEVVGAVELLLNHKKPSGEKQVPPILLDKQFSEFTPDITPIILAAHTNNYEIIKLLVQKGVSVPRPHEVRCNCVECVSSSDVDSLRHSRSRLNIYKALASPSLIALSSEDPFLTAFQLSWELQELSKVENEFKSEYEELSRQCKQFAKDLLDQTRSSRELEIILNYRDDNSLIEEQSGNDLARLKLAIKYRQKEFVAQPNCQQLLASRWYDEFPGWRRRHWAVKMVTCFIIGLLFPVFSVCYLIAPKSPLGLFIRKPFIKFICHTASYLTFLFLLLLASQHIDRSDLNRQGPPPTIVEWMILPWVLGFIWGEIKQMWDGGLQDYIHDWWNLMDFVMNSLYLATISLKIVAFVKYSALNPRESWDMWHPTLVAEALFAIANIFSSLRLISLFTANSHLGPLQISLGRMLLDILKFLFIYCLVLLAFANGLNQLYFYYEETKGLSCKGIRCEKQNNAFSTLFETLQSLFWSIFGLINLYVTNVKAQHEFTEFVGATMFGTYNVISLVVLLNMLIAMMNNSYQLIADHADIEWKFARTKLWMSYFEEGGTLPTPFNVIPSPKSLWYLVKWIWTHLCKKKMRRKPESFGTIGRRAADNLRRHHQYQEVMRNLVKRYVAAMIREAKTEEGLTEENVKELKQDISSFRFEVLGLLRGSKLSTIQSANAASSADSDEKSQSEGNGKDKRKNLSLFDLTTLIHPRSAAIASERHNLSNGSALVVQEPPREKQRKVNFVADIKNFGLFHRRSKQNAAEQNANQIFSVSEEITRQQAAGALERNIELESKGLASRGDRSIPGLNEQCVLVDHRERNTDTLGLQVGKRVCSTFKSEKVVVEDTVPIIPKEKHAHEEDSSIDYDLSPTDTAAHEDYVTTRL

[6] = fluconazole-exposed Candida albicans growth modulators – fluorescence, retest, confirmation (AID 2467); assay type: functional, cell-based
Streptococcus = assay: GAS UMAA2166 growth inhibition – luminescence, BacTiterGlo, counter-screen for streptokinase expression inhibitor project, dose response (AID 1915); assay type: functional, organism-based;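 further: potency for reduction of bacterial viability or growth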
[7] = tested on: Streptococcus sp. 'group A'; assay: Streptococcus pyogenes SK(-)GAS viability under kanamycin – luminescence, BacTiterGlo, confirmation, counter-screen for streptokinase expression inhibitor project, dose response (AID 1900); assay type: functional, organism-based
Beta-galactosidase = Beta-galactosidase (Escherichia coli, UniProt Q8VNN2); assay: detection-enzyme interference by beta-gal modulators – biochemical, E. coli enzyme, set 3, artefact control for CCR6 antagonist project, dose response (AID 504712); assay type: functional
[8] = biological target: Glyceraldehyde-3-phosphate dehydrogenase (Homo sapiens, UniProt P04406)
INS1 = assay: INS-1E survival protection against cytokine death – cell-based, luminescence, retest, dose response (AID 449756); assay type: functional; conditions: Rattus norvegicus, INS1;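 further: cell death triggered by IL-1 beta plus TNF-alpha plus IFN-gamma mixture; protective hits raise ATP signal compared with cytokine alone wells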
[9] = Luminescence Cell-Based Dose Retest to Confirm Inhibitors of Cancer Stem Cells. [Related pubchem assays (depositor defined):AID2717, AID2721]; assay type: functional; conditions: Homo sapiens
[10] = Luminescence Cell-Based Dose Confirmation HTS to Identify Activators of 5'UTR Stem-Loop Driven Alpha-Synuclein mRNA Translation in H4 Neuroglioblastoma Cells. [Related pubchem assays: 1829 (Project Summary), 1814 (Primary HTS)]; assay type: functional
H4 = assay: Luminescence Cell-Based Dose Response HTS to Identify Activators of 5'UTR Stem-Loop Driven Prion Protein mRNA Translation in H4 Neuroglioblastoma Cells. [Related pubchem assays: 1829 (Project Summary), 1814 (Primary HTS)]; assay type: functional; conditions: Homo sapiens
[11] = Luminescence Cell-Based Dose Response HTS to Identify Activators of Luciferase Translation or Activity in H4 […] Cells. [Related pubchem assays: 1829 (Project Summary), 1814 (Primary HTS)]; assay type: functional
HEK293 [12] = assay: cells; assay type: functional, cell-based; conditions: Homo sapiens
HEK293 [13] = assay: inhibition of NOD1-driven NF-kB reporter – cell-based, luminescence, uHTS, primary screen (AID 1578); assay type: functional; conditions: Homo sapiens
[14] = biological target: T3, Nucleotide-binding oligomerization domain-containing protein 1 (Homo sapiens, UniProt Q9Y239); assay: blockers of NOD1 pathway activity – revised, SAR follow-up (AID 2333); assay type: functional
T3 sequence (Q9Y239 whole entry): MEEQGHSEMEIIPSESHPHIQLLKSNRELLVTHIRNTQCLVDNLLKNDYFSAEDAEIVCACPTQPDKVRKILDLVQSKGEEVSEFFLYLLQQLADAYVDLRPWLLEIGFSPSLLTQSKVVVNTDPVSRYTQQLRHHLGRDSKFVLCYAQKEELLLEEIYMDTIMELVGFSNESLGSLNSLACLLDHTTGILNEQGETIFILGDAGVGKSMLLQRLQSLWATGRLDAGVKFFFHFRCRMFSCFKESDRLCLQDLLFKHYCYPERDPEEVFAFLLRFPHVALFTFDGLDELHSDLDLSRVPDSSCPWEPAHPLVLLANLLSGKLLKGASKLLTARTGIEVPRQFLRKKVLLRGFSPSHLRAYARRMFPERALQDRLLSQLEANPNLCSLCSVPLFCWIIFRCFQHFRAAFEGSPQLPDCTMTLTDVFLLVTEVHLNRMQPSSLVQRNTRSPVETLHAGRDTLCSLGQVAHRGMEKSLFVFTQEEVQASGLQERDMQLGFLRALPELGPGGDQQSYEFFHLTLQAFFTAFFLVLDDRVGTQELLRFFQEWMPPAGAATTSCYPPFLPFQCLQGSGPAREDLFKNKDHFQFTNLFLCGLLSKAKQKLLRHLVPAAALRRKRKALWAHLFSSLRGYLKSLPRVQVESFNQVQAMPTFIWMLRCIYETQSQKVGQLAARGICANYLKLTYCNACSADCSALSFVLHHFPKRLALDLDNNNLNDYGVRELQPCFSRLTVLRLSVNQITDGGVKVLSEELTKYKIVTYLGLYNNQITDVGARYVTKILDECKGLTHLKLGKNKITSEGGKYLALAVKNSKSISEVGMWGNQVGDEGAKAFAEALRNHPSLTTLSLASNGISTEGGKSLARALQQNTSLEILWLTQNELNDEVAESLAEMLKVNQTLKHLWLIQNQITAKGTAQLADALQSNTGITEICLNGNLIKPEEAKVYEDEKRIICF

HEK293 [15] = assay: cells; conditions: Homo sapiens
HEK293 [16] = assay: cells; assay type: functional, cell-based; conditions: Homo sapiens; remark: listed apart in the source
Tumor necrosis factor = Tumor necrosis factor (Homo sapiens, UniProt P01375); assay: analog potency on TNFa NF-kB signaling – cell-based, revised, SAR follow-up (AID 2337); assay type: functional
HEK293 [17] = assay: NOD2 signaling inhibitors in MDP-stimulated cells, cell-based, uHTS, luminescence (AID 2001); assay type: functional; conditions: Homo sapiens
cells = assay type: functional
[18] = biological target: T4, Microphthalmia-associated transcription factor (Homo sapiens, UniProt O75030); assay: reducers of TRPM1 reporter luminescence, concentration series – cell-based, SK-MEL-5, cherry-picked, set 3, MITF inhibitor project, dose response (AID 493073); assay type: functional;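 further: SK-MEL-5 melanoma cells with luciferase driven by the MITF target TRPM1 promoter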
T4 sequence (O75030 whole entry): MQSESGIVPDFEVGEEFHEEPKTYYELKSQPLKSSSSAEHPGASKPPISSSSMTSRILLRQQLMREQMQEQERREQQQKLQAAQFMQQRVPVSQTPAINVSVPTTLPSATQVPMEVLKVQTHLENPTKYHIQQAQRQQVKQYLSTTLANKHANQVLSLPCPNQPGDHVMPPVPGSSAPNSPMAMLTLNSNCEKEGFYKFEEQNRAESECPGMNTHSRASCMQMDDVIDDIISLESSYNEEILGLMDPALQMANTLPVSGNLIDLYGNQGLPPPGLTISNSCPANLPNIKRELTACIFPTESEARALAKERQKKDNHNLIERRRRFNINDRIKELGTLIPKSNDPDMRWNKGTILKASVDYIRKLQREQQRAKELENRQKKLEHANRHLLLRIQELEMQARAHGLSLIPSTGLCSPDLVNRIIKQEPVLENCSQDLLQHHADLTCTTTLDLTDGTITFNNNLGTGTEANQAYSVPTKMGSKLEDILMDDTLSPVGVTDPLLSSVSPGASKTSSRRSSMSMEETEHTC

Chain of Voltage-dependent T-type calcium channel subunit alpha-1H (O95180 whole entry): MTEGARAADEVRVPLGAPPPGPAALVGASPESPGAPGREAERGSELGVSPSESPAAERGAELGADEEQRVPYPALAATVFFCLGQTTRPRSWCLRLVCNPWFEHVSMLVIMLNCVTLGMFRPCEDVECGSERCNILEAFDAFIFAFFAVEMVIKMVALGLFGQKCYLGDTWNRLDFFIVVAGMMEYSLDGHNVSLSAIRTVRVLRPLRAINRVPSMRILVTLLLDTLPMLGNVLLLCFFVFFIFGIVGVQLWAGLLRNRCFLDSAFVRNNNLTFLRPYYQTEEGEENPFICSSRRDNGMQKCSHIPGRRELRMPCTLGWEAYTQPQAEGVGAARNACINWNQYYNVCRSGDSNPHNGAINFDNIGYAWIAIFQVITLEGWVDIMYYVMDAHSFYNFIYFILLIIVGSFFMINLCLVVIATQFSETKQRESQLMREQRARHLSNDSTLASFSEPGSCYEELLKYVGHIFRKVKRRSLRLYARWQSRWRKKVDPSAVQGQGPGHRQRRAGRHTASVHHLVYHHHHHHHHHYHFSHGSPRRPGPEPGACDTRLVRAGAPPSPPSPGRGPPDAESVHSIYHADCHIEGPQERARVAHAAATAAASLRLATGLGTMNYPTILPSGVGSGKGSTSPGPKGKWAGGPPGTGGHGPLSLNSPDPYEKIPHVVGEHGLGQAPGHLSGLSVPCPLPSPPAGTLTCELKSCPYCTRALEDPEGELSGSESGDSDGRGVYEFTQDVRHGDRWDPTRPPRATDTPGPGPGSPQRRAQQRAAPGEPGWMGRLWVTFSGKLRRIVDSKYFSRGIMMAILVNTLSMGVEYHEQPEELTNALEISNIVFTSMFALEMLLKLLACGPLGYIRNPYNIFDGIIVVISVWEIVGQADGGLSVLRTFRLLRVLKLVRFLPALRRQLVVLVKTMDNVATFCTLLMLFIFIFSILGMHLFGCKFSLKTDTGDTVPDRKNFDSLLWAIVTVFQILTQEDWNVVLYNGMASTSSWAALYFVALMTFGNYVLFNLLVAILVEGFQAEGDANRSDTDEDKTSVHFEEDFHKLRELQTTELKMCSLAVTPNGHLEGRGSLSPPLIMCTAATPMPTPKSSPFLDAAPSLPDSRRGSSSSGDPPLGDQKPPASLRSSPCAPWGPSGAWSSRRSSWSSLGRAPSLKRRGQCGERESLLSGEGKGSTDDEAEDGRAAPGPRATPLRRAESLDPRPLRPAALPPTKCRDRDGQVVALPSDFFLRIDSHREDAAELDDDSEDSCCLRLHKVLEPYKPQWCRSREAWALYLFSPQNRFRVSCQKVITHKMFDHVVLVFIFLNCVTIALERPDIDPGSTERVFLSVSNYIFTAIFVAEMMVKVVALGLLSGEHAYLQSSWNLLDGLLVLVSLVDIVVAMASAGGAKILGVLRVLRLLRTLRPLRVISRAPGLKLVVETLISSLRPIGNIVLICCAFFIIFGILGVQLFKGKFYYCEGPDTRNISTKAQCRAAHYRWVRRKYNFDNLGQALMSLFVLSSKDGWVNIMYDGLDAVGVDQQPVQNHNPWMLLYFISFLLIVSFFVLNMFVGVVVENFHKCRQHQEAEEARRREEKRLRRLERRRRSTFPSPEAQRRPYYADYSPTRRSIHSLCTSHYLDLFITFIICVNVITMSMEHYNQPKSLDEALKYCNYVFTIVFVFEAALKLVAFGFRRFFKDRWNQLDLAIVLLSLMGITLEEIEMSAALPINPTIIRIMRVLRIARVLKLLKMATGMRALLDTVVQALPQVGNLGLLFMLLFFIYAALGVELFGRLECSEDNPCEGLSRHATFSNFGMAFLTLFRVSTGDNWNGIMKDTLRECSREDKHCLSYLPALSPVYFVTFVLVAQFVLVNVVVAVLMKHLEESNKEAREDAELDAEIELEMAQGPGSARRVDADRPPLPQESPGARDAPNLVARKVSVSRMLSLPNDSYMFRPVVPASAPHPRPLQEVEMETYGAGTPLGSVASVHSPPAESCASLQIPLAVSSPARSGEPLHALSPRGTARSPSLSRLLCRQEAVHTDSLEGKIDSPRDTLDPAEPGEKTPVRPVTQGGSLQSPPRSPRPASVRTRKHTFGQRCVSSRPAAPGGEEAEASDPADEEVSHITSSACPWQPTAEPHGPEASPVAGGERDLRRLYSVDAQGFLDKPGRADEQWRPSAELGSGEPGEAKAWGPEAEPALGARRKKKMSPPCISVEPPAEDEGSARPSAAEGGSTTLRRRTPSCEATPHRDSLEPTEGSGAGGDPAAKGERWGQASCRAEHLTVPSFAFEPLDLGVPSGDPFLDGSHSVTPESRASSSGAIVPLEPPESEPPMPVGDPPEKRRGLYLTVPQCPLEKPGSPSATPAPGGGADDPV
Chain of Glyceraldehyde-3-phosphate dehydrogenase (P04406 whole entry): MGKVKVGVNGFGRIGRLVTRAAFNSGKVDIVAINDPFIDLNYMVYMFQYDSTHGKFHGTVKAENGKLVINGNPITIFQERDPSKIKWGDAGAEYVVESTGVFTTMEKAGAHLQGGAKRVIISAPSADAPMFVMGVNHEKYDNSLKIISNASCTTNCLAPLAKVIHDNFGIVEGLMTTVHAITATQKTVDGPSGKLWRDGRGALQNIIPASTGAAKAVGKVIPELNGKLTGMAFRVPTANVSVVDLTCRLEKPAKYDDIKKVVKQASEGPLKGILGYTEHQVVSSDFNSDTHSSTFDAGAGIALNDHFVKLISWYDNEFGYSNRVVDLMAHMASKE
Chain of Genome polyprotein (P29990 2492-3391 limits assumed): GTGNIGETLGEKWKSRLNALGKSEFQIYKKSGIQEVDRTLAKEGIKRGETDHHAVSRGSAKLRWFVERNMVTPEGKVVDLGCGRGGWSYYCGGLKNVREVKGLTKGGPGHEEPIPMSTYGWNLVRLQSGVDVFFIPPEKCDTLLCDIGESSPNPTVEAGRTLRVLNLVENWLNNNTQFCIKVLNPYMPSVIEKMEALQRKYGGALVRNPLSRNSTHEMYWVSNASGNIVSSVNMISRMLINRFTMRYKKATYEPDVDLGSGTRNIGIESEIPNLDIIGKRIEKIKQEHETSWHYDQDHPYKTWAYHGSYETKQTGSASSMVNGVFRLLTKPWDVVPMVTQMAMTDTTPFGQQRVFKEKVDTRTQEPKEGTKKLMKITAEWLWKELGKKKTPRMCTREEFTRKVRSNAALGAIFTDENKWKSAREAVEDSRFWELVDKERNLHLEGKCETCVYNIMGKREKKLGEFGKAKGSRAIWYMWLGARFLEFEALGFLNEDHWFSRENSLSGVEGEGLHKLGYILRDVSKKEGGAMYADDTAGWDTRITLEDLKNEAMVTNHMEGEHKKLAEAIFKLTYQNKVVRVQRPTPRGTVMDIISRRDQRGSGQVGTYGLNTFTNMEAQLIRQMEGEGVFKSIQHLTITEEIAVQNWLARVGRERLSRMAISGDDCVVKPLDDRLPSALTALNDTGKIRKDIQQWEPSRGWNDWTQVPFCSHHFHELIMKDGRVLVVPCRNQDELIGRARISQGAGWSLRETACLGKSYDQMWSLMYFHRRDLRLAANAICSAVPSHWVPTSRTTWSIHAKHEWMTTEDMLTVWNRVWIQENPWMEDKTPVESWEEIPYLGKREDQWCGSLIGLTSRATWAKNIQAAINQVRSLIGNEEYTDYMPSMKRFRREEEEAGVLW
Chain of Beta-galactosidase (Q8VNN2 whole entry): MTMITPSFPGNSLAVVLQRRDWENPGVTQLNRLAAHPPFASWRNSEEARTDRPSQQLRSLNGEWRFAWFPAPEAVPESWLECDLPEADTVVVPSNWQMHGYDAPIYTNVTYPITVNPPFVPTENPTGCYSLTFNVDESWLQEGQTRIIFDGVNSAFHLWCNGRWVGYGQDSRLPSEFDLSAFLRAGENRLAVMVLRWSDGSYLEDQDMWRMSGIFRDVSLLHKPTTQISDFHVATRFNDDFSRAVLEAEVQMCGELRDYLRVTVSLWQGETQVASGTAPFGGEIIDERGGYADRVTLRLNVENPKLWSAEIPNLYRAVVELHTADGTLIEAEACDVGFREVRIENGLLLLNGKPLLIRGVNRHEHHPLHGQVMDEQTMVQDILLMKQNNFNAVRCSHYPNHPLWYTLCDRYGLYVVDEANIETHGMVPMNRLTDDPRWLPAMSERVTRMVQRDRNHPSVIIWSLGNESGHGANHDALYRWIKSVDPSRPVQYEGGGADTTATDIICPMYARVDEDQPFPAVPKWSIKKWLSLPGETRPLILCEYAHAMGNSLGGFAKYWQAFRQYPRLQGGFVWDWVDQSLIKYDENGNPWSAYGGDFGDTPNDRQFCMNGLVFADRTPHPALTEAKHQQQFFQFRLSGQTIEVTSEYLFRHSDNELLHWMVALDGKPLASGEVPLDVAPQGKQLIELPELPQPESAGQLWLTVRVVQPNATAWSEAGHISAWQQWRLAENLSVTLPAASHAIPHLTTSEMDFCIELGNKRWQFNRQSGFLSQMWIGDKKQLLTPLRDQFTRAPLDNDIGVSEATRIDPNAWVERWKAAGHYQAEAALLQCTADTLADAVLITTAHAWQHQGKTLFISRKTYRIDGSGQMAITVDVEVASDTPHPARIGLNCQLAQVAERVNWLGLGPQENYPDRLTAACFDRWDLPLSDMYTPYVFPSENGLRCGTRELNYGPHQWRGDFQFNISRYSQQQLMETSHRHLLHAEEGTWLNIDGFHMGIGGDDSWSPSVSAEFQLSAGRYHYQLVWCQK
Chain of Tumor necrosis factor (P01375 whole entry): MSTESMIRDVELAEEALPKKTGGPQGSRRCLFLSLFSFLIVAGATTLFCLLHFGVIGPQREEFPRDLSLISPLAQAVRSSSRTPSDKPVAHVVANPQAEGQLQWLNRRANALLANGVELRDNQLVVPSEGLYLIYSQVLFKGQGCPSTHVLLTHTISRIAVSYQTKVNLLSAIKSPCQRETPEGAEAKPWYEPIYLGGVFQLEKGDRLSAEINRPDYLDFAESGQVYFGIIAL

## O=C(O)CN1C(=O)/C(=C2\C(=O)N(Cc3ccccc3Cl)c3ccccc32)SC1=S
Genome polyprotein
  IC50: 28.2 µM (active)
[1]
  IC50: 2.61 µM (active)

## O=S(=O)(c1ccc(Cl)cc1)N1CCCC1c1nc2ccccc2s1 (centres undefined)
[2]
  EC50: 6.61 µM (active)

## CSc1ncccc1C(=O)Nc1nc2ccc(Oc3ccccc3)cc2s1
[3]
  CC50: > 40 µM (active)

## O=C(COc1ccccc1)NNC(=S)NC(=O)c1ccc(Cl)cc1Cl
[4]
  EC50: 110 µM (active)
[5]
  EC50: 4.73 µM (active)
[6]
  EC50: > 38 µM (not active)
Streptococcus
  EC50: 2.96 µM (active)
[7]
  EC50: 0.623 µM (active)

## Cc1cc([N+](=O)[O-])ccc1NC(=S)NC(=O)Cc1ccccc1
Beta-galactosidase
  IC50: > 66.6 µM (inactive)

## O=C(NC1CC1)C1=C[C@H](c2csc3ccccc23)C[C@H](OCc2ccc(CO)cc2)O1
[5]
  EC50: 10.6 µM (active)

## COc1cccc(N2C(=O)C(Cl)=C(N3CCN[C@@H](C)C3)C2=O)c1
[8]
  IC50: > 50 µM (inconclusive)

## CC(=O)NC(c1cc(Cl)c2cccnc2c1O)C1CC1 (centres undefined)
[3]
  CC50: 5.47 µM (active)
INS1
  AC50: 1.91 µM (active)
[9]
  AC50: 3.26 µM (active)

## O=C(CC1C(=O)NCCN1Cc1ccc(-c2ccccc2)cc1)NCCc1ccccn1 (centres undefined)
[5]
  EC50: 4.73 µM (active)

## COc1ccc(C(=O)/C=C/c2cccs2)c(OC(=O)c2cccc([N+](=O)[O-])c2)c1
[10]
  EC50: > 120 µM (not active)
[3]
  CC50: 38.5 µM (active)
H4
  EC50: 10.6 µM (active)
[11]
  EC50: 4.7 µM (active)

## CCOC(=O)C1(Cc2ccccc2)CCN(Cc2c[nH]nc2-c2ccccc2)CC1
[5]
  EC50: 6.68 µM (active)

## CCN(CC)S(=O)(=O)c1cccc(-c2nnc(SCCOc3ccccc3C)o2)c1
[2]
  EC50: 9.91 µM (active)

## COc1ccc(-c2cc(=O)oc3cc(OCC(=O)Nc4ccc(CCO)cc4)ccc23)cc1
HEK293 [12]
  IC50: > 20 µM (inactive)
HEK293 [13]
  EC50: 9.26 µM (active)
[14]
  IC50: 5.18 µM (active)
HEK293 [15]
  IC50: > 20 µM (inactive)
HEK293 [16]
  IC50: > 20 µM (inactive)
Tumor necrosis factor
  IC50: > 20 µM (inactive)
HEK293 [17]
  IC50: > 20 µM (inactive)

## Cc1cccc(N2C(=O)C(Cl)=C(N(C)C)C2=O)c1
[8]
  IC50: > 50 µM (inconclusive)

## COC(=O)c1ccc(N2CCN(C)CC2)c(NC(=O)COc2ccccc2)c1
[5]
  EC50: 5.96 µM (active)

## Clc1ccc(CN(CC2CCCO2)C(c2cccs2)c2nnnn2C2CCCC2)cc1 (centres undefined)
[2]
  EC50: 6.56 µM (active)

## CCOC(=O)Cc1csc(NC(=O)COc2ccc3ccccc3c2)n1
[2]
  EC50: 2.56 µM (active)

## O=c1oc(CCCO)cc2ccc(C#Cc3ccsc3)cc12
[3]
  CC50: > 40 µM (active)

## CCOc1cc(/C=N/Nc2ccc(S(=O)(=O)Nc3ccccc3C(=O)O)cc2[N+](=O)[O-])cc(Cl)c1O
Genome polyprotein
  IC50: 30.4 µM (active)

## C=CC/N=c1\scc(-c2ccc(F)cc2)n1/N=C/c1ccccn1
[3]
  CC50: > 40 µM (active)

## CSc1ccc(N=Nc2c(C)[nH]n(C)c2=O)cc1
cells
  IC50: 15.6 µM (active)

## O=C(N/N=C/c1ccccn1)c1cc([N+](=O)[O-])cc([N+](=O)[O-])c1
[18]
  AC50: 6.54 µM (active)
cells
  IC50: 40.2 µM (active)
